Laboratory results taken from ChEMBL document CHEMBL3045205, “Synthesis and Fungicidal Activities of [2-(2, 5-Dimethylphenoxymethyl)--methoxyiminobenzyl]-isoxazole Derivatives” (J Pestic Sci, 1999).

What was measured:
Assay type in all cases: functional
Podosphaera fuliginea [1] = experiment: Fungicidal activity against Podosphaera fuliginea inoculated on cucumber plants pre-treated with compound 24 hr before fungal inoculation assessed as inhibition of cucumber powdery mildew disease at 31.3 ppm measured after 10 days under greenhouse conditions relative to untreated control
[2] = system: Blumeria graminis f. sp. tritici; experiment: Fungicidal activity against Blumeria graminis f. sp. tritici inoculated on wheat seedlings pre-treated with compound 24 hr before fungal inoculation assessed as inhibition of wheat powdery mildew disease at 500 ppm measured after 10 days under greenhouse conditions relative to untreated control
[3] = system: Blumeria graminis f. sp. tritici; experiment: Fungicidal activity against Blumeria graminis f. sp. tritici inoculated on wheat seedlings pre-treated with compound 24 hr before fungal inoculation assessed as inhibition of wheat powdery mildew disease at 31.3 ppm measured after 10 days under greenhouse conditions relative to untreated control
Podosphaera fuliginea [4] = experiment: Fungicidal activity against Podosphaera fuliginea inoculated on cucumber plants pre-treated with compound 24 hr before fungal inoculation assessed as inhibition of cucumber powdery mildew disease at 500 ppm measured after 10 days under greenhouse conditions relative to untreated control
[5] = system: Blumeria graminis f. sp. tritici; experiment: Fungicidal activity against Blumeria graminis f. sp. tritici inoculated on wheat seedlings treated with compound 24 hr after fungal inoculation assessed as inhibition of wheat powdery mildew disease at 7.8 ppm measured after 10 days under greenhouse conditions relative to untreated control
Podosphaera fuliginea [6] = experiment: Fungicidal activity against Podosphaera fuliginea inoculated on cucumber plants pre-treated with compound 24 hr before fungal inoculation assessed as inhibition of cucumber powdery mildew disease at 7.8 ppm measured after 10 days under greenhouse conditions relative to untreated control
Botrytis cinerea [7] = experiment: Fungicidal activity against Botryotinia fuckeliana inoculated on cucumber leaves pre-treated with compound 24 hr before fungal inoculation assessed as inhibition of cucumber gray mold disease at 7.8 ppm measured after 3 days under greenhouse conditions relative to untreated control
Puccinia coronata [8] = experiment: Fungicidal activity against Puccinia coronata inoculated in oat leaves pre-treated with compound 24 hr before fungal inoculation assessed as inhibition of oat crown rust disease at 7.8 ppm measured after 9 days under greenhouse conditions relative to untreated control
Botrytis cinerea [9] = experiment: Fungicidal activity against Botryotinia fuckeliana inoculated on cucumber leaves treated with compound 24 hr after fungal inoculation assessed as inhibition of cucumber gray mold disease at 7.8 ppm measured after 3 days under greenhouse conditions relative to untreated control
[10] = system: Blumeria graminis f. sp. tritici; experiment: Fungicidal activity against Blumeria graminis f. sp. tritici inoculated on wheat seedlings pre-treated with compound 24 hr before fungal inoculation assessed as inhibition of wheat powdery mildew disease at 7.8 ppm measured after 10 days under greenhouse conditions relative to untreated control
Botrytis cinerea [11] = experiment: Fungicidal activity against Botryotinia fuckeliana inoculated on cucumber leaves pre-treated with compound 24 hr before fungal inoculation assessed as inhibition of cucumber gray mold disease at 31.3 ppm measured after 3 days under greenhouse conditions relative to untreated control
Podosphaera fuliginea [12] = experiment: Fungicidal activity against Podosphaera fuliginea inoculated on cucumber plants treated with compound 24 hr after fungal inoculation assessed as inhibition of cucumber powdery mildew disease at 31.3 ppm measured after 10 days under greenhouse conditions relative to untreated control
[13] = system: Blumeria graminis f. sp. tritici; experiment: Fungicidal activity against Blumeria graminis f. sp. tritici inoculated on wheat seedlings treated with compound 24 hr after fungal inoculation assessed as inhibition of wheat powdery mildew disease at 31.3 ppm measured after 10 days under greenhouse conditions relative to untreated control
Botrytis cinerea [14] = experiment: Fungicidal activity against Botryotinia fuckeliana inoculated on cucumber leaves treated with compound 24 hr after fungal inoculation assessed as inhibition of cucumber gray mold disease at 31.3 ppm measured after 3 days under greenhouse conditions relative to untreated control
Puccinia coronata [15] = experiment: Fungicidal activity against Puccinia coronata inoculated in oat leaves treated with compound 24 hr after fungal inoculation assessed as inhibition of oat crown rust disease at 31.3 ppm measured after 9 days under greenhouse conditions relative to untreated control
Puccinia coronata [16] = experiment: Fungicidal activity against Puccinia coronata inoculated in oat leaves treated with compound 24 hr after fungal inoculation assessed as inhibition of oat crown rust disease at 7.8 ppm measured after 9 days under greenhouse conditions relative to untreated control
Podosphaera fuliginea [17] = experiment: Fungicidal activity against Podosphaera fuliginea inoculated on cucumber plants treated with compound 24 hr after fungal inoculation assessed as inhibition of cucumber powdery mildew disease at 7.8 ppm measured after 10 days under greenhouse conditions relative to untreated control
Puccinia coronata [18] = experiment: Fungicidal activity against Puccinia coronata inoculated in oat leaves pre-treated with compound 24 hr before fungal inoculation assessed as inhibition of oat crown rust disease at 31.3 ppm measured after 9 days under greenhouse conditions relative to untreated control

Compound | inhibition at 31.3 ppm (Podosphaera fuliginea [1]) [%] | inhibition at 500 ppm [2] [%] | inhibition at 31.3 ppm [3] [%] | inhibition at 500 ppm (Podosphaera fuliginea [4]) [%] | other results
CO/N=C(/C1=NOC(C)C1)c1ccccc1COc1cc(C)ccc1C (configuration not stated) | 90 | 90 | – | – | –
CO/N=C(/c1ccno1)c1ccccc1COc1cc(C)ccc1C | 90 | – | 90 | – | –
CO/N=C(\c1ccccc1COc1cc(C)ccc1C)c1c(C)noc1C | – | < 90 | – | 90 | –
CO/N=C(/C1=NOCC1)c1ccccc1COc1cc(C)ccc1C | 100 | – | 90 | – | inhibition at 7.8 ppm [5]: 70%; inhibition at 7.8 ppm (Podosphaera fuliginea [6]): 90%; inhibition at 7.8 ppm (Botrytis cinerea [7]): 0%; inhibition at 7.8 ppm (Puccinia coronata [8]): 30%; inhibition at 7.8 ppm (Botrytis cinerea [9]): 0%; inhibition at 7.8 ppm [10]: 90%; inhibition at 31.3 ppm (Botrytis cinerea [11]): 20%; inhibition at 31.3 ppm (Podosphaera fuliginea [12]): 100%; inhibition at 31.3 ppm [13]: 97%; inhibition at 31.3 ppm (Botrytis cinerea [14]): 20%; inhibition at 31.3 ppm (Puccinia coronata [15]): 50%; inhibition at 7.8 ppm (Puccinia coronata [16]): 0%; inhibition at 7.8 ppm (Podosphaera fuliginea [17]): 100%; inhibition at 31.3 ppm (Puccinia coronata [18]): 90%
CO/N=C(\c1ccon1)c1ccccc1COc1cc(C)ccc1C | 90 | – | – | – | inhibition at 7.8 ppm [10]: 90%
CO/N=C(\Cc1cc(C)no1)c1ccccc1COc1cc(C)ccc1C | – | < 90 | – | < 90 | –
CO/N=C(\c1ccno1)c1ccccc1COc1cc(C)ccc1C | – | 90 | – | 90 | –
CO/N=C(/c1cc(OC)on1)c1ccccc1COc1cc(C)ccc1C | 90 | < 90 | – | – | –
CON=C(c1cc(C)on1)c1ccccc1COc1cc(C)ccc1C | – | – | 90 | – | inhibition at 7.8 ppm (Podosphaera fuliginea [6]): 90%
